According to ChEMBL document CHEMBL2028040, “Malaria Box”:

How the values were obtained:
[1] = system: Plasmodium falciparum; test: MMV: Inhibition of Plasmodium falciparum K1 (EC50).; assay type: functional, organism-based
[2] = MMV: Cytotoxicity against human fibroblasts (MRC-5) cells.; details: MRC-5 cells (human fibroblasts)
[3] = system: Leishmania infantum; test: MMV: Inhibition of Leishmania infantum (MHOM/MA/BE/67) in vitro.; assay type: functional, organism-based
[4] = system: Trypanosoma cruzi; test: MMV: Inhibition of Trypanosoma cruzi (Tulahuen C4 LacZ) (Chagas in vitro).; assay type: functional, organism-based
[5] = system: Plasmodium falciparum; test: MMV: Inhibition of Plasmodium falciparum 3D7 (EC50).; assay type: functional, organism-based
[6] = system: Plasmodium falciparum; test: MMV: Inhibition of Plasmodium falciparum 3D7 at 5uM compound concentration.; assay type: functional
[7] = system: Trypanosoma brucei rhodesiense; test: MMV: Inhibition of Trypanosoma brucei rhodesiense (STIB 900) (HAT in vitro).; assay type: functional, organism-based
[8] = system: Trypanosoma brucei brucei; test: MMV: Inhibition of Trypanosoma brucei brucei (Squib 427) (HAT in vitro).; assay type: functional, organism-based

Compound	EC50 [1]	IC50 [3]	IC50 [4]	EC50 [5]	IC50 [7]	IC50 [8]	IC50 [2]	inhibition at 5 µM [6]
COc1ccc(N2CCN(C(CNC(=O)C3CCCCC3)c3ccc4c(c3)OCO4)CC2)cc1 (stereo not given)	0.986 µM	> 32 µM	25.9 µM	1.11 µM	22.5 µM	> 32 µM	> 32 µM	97%
COC(=O)c1ccc(C2C3=C(O)CC(c4ccc(F)cc4)CC3=Nc3ccccc3N2C(=O)c2ccccc2)cc1 (stereo not given)	0.724 µM	1.59 µM	> 32 µM	0.327 µM	1.72 µM	4.18 µM	> 32 µM	98%
Cc1sc2ncnc(Sc3nc4ccccc4[nH]3)c2c1C	0.582 µM	> 32 µM	> 32 µM	0.615 µM	> 32 µM	> 32 µM	> 32 µM	100%
c1ccc2c(NCCCCCCNc3c4c(nc5ccccc35)CCCC4)c3c(nc2c1)CCCC3	1.35 µM	1.01 µM	1.19 µM	0.376 µM	0.794 µM	1.02 µM	4.06 µM	100%
CCC1(C)CC(CCNCc2ccccc2O)(c2ccc(C)cc2)CCO1 (stereo not given)	0.0372 µM	4.32 µM	15.7 µM	0.142 µM	1.01 µM	3.05 µM	16.1 µM	97%
OC(CNC1CCCCC1)Cn1c2ccccc2c2ccccc21 (stereo not given)	1.17 µM	16.6 µM	> 32 µM	0.293 µM	4.03 µM	4.15 µM	> 32 µM	93%
O=C(NC1CCN(Cc2ccccc2)CC1)c1cc(C(=O)NC2CCN(Cc3ccccc3)CC2)cc(C(=O)NC2CCN(Cc3ccccc3)CC2)c1	0.928 µM	4.06 µM	25.1 µM	0.646 µM	2.84 µM	4.06 µM	> 32 µM	98%
Cc1ccc(CSCc2ccc(C(=O)NC3CC3)o2)cc1	1.13 µM	> 32 µM	> 32 µM	0.635 µM	> 32 µM	> 32 µM	> 32 µM	97%
COc1cc(-c2nc(-c3ccc(Sc4ccccc4)cc3)c(-c3ccccc3)[nH]2)cc(OC)c1O	0.976 µM	16.2 µM	11.1 µM	0.35 µM	3.61 µM	3.37 µM	8.45 µM	97%
O=C1c2ccc3c4c(ccc(c24)C(=O)N1CCCCO)C(=O)N(CCCCO)C3=O	0.858 µM	1.01 µM	2.07 µM	0.795 µM	1 µM	2.84 µM	13.8 µM	97%
Cc1ccc(C)c(Cn2c(N3CCC(C(=O)NCc4cccs4)CC3)nc3ccccc32)c1	1.67 µM	17.3 µM	8.64 µM	1.33 µM	3.86 µM	6.9 µM	> 32 µM	97%
Cc1ccccc1OCCSc1nc2ccc(NC(=O)c3cccs3)cc2s1	1.04 µM	17.3 µM	4.65 µM	0.697 µM	2.77 µM	3.94 µM	> 32 µM	96%
Clc1cc(Br)ccc1-c1ccc(CNCC2CCNCC2)o1	1.62 µM	1 µM	1.01 µM	0.8 µM	< 0.125 µM	< 0.125 µM	4.03 µM	96%
COc1ccc(C2C(C(=O)Nc3cccc(OC)c3)c3ccccc3C(=O)N2C2CCCCC2)cc1 (stereo not given)	1.6 µM	6.35 µM	15.6 µM	1.18 µM	3.7 µM	4.06 µM	> 32 µM	97%
O=C(Nc1ccc(C23CC4CC(CC(c5ccccc5)(C4)C2)C3)cc1)c1cccs1	1.27 µM	> 32 µM	> 32 µM	0.826 µM	> 32 µM	> 32 µM	> 32 µM	96%
CN1C=C(c2ccc3ccccc3n2)C(c2c[nH]c3ccccc23)c2ccccc21 (stereo not given)	1.06 µM	16.2 µM	0.934 µM	0.552 µM	0.979 µM	3.77 µM	> 32 µM	95%
O=C(Nc1ccc(N2CCCCC2)c(Cl)c1)c1ccc(Br)o1	1.45 µM	> 32 µM	14.9 µM	0.735 µM	13.6 µM	15.1 µM	26.8 µM	96%
Clc1ccc2c(N3CCCC3)ccnc2c1	1.29 µM	> 32 µM	> 32 µM	0.944 µM	14.4 µM	16 µM	> 32 µM	97%
COc1cc2c3cc1Oc1c(OC)c(OC)cc4c1C(Cc1ccc(O)c(c1)Oc1ccc(cc1)CC3N(C)CC2)N(C)CC4 (stereo not given)	1.19 µM	12 µM	3.67 µM	1.27 µM	4.59 µM	14.5 µM	4.42 µM	96%
CCOC(=O)C1CCN(C(=O)CN2C(=O)c3ccccc3C2c2c[nH]c3ccccc23)CC1 (stereo not given)	2.67 µM	> 32 µM	14.7 µM	1.18 µM	13.8 µM	16.1 µM	> 32 µM	98%
CCN(CC)S(=O)(=O)c1ccc(-c2csc(Nc3ccc(C)c(C)c3)n2)cc1	1.04 µM	16.2 µM	> 32 µM	0.641 µM	> 32 µM	> 32 µM	> 32 µM	97%
CC(C)(C)c1ccc(C2CC3=Nc4ccccc4N(C(=O)c4ccccc4Cl)C(c4ccc(F)cc4)C3=C(O)C2)cc1 (stereo not given)	0.824 µM	17.3 µM	> 32 µM	0.947 µM	1.11 µM	4.25 µM	> 32 µM	96%
CCCCc1c(CCC)c(=N)c2ccccc2n1C	1.58 µM	6.35 µM	0.375 µM	0.716 µM	3.92 µM	4 µM	19.3 µM	77%

Now from value to molecule, other results behind:

EC50 [1]	IC50 [3]	IC50 [4]	EC50 [5]	IC50 [7]	IC50 [8]	Compound	IC50 [2]	inhibition at 5 µM [6]
0.182 µM	17.3 µM	16.9 µM	0.676 µM	4.7 µM	16.1 µM	O=C(CCc1ccccc1)c1ccccc1OCC(O)CN1CCCCC1 (stereo not given)	> 32 µM	97%
0.388 µM	> 32 µM	24.4 µM	0.17 µM	21 µM	> 32 µM	COc1ccc(-n2ccnc2SCC(=O)Nc2cc(C)ccc2C)c(OC)c1	> 32 µM	95%
0.576 µM	> 32 µM	> 32 µM	0.669 µM	17.4 µM	> 32 µM	Cn1c(=O)c2cc(C(=O)NCCCN3CCCCCC3)sc2c2ccccc21	> 32 µM	97%
0.114 µM	> 32 µM	14.6 µM	0.37 µM	16.2 µM	15.2 µM	CCOc1cc2c(cc1OCC)C(c1cc(OC)c(O)cc1Cl)NCC2 (stereo not given)	> 32 µM	98%
0.195 µM	> 32 µM	> 32 µM	0.0255 µM	> 32 µM	> 32 µM	CC1CN(C(=O)c2sc3ccccc3c2Cl)CC(C)O1 (stereo not given)	> 32 µM	95%
0.203 µM	11.9 µM	4.1 µM	0.611 µM	12.5 µM	15.6 µM	Oc1ccccc1CN1CCN(C(c2ccccc2)c2ccccc2)CC1	> 32 µM	97%
0.413 µM	22.6 µM	13 µM	0.512 µM	15.5 µM	> 32 µM	CCn1c(CN2CCN(Cc3ccccc3)CC2)nc2cc(NC(=O)c3cccs3)ccc21	> 32 µM	97%
0.187 µM	16 µM	11.8 µM	0.625 µM	11.4 µM	10.9 µM	CCN(Cc1ccccc1)C1CCN(Cc2cc(Br)ccc2O)CC1	> 32 µM	97%
0.47 µM	19 µM	18 µM	1.13 µM	< 0.125 µM	18.4 µM	CC1CCN(Cc2c(O)ccc3cc(-c4nc5ccccc5s4)c(=O)oc23)CC1	23.2 µM	91%
0.15 µM	> 32 µM	> 32 µM	0.14 µM	> 32 µM	> 32 µM	COc1ccccc1CNC(=O)CCn1c(=O)[nH]c2ccsc2c1=O	> 32 µM	67%
0.224 µM	> 32 µM	> 32 µM	0.179 µM	> 32 µM	> 32 µM	COc1ccc(C(C)=O)cc1N1C(=O)C2C(C1=O)C1(c3ccccc3)C(=O)C2(c2ccccc2)C(c2ccc(C)cc2)=C1c1ccc(C)cc1 (stereo not given)	> 32 µM	96%
0.507 µM	> 32 µM	> 32 µM	0.539 µM	> 32 µM	> 32 µM	Cc1ccc(F)cc1NC(=O)c1cc(Cl)ccc1Nc1ccccc1	> 32 µM	99%
